According to patent publication US20260022142A1, “MACROCYCLIC IMMUNOMODULATORS” (Bristol-Myers Squibb Company, priority 2022, published 2026):
Numbered stars: 1 amine (or outer) side, 2 acyl side, 3 side chain; on linkers, the order of the positions; unused ones are H or OH. Bridge positions count the residues as written; N and C are the ends. Square brackets hold non-standard residues; d marks the D form. Peptide text beside a SMILES is read from it. * marks the point of attachment. ξ: configuration not given here. Bip = N[C@@H](Cc1ccc(-c2ccccc2)cc1)C(=O)O; Tyr(3-Me) = Cc1cc(C[C@H](N)C(=O)O)ccc1O; Phe(3-Me) = Cc1cccc(C[C@H](N)C(=O)O)c1; X5 = CC(C)(CCN)[C@H](N[*:1])C(=O)[*:2]; Val(3-OH) = CC(C)(O)[C@H](N)C(=O)O; 4Pal = N[C@@H](Cc1ccncc1)C(=O)O; Cha = N[C@@H](CC1CCCCC1)C(=O)O; CH2COCH2 = O=C(C[*:1])C[*:2]; Carboxymethyl = O=C(O)C*; Orn = NCCC[C@H](N)C(=O)O; Aun = NCCCCCCCCCCC(=O)O; Dab = NCC[C@H](N)C(=O)O; Dap = NC[C@H](N)C(=O)O; Piv = CC(C)(C)C(=O)*; ξV = CC(C)C(N)C(=O)O

These molecules were tested against T1, PD-1/PD-L1 interaction (PE-labeled human PD-L1-Ig binding to Jurkat cell line over-expressing human PD-1) (Homo sapiens, UniProt Q15116) (assay: Jurkat-PD-1 Cell Binding High-Content Screening Assay (CBA)). Settings: Jurkat cell line over-expressing human PD-1; PE-labeled PD-L1-Ig 20 nM final; read-out: Jurkat hPD1-PDL1 IC50.
T1 construct: expressed in transfected cells; host or cells: Jurkat
T1 sequence (Q15116 25-288): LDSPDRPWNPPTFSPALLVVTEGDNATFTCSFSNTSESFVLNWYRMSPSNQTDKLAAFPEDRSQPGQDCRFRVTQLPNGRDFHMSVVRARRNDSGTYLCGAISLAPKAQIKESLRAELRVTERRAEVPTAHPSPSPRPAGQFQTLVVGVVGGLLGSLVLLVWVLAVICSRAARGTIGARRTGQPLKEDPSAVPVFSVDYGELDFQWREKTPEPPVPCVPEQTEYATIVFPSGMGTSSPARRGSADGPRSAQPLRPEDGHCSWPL
Assay type: cell-based
In short: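 First, compound is added to PD-1-expressing Jurkat cells in serum-containing DMEM and left 2 h at 37° C. Next, PE-conjugated PD-L1-Ig is introduced at 20 nM final concentration for 1 hour. Finally, cells are fixed in 4% paraformaldehyde with Hoechst 33342, washed and imaged.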

Row | SMILES | IC50 [nM]
1 | Cc1cc(C[C@@H]2NC(=O)[C@H](CC(=O)O)NC(=O)[C@H](Cc3ccc(OCC(=O)O)cc3)NC(=O)[C@H](CN)NC(=O)CSC[C@@H](C(=O)N[C@@H](CCN)C(=O)NCCCCCCCCCCC(=O)O)NC(=O)[C@H]([C@@H](C)O)NC(=O)[C@H](C(C)C)NC(=O)[C@H](CC3CCCCC3)NC(=O)[C@H](CCN)NC(=O)[C@@H](CC(C)C)NC(=O)[C@H](CCCN)NC(=O)[C@H](Cc3ccc(OCC(=O)O)cc3)NC(=O)[C@H](Cc3ccc(-c4ccccc4)cc3)NC(=O)[C@H](Cc3ccc(O)cc3)NC2=O)ccc1O [Compound 2108] ({CH2CO}-[Dap]Y(Carboxymethyl)D[Tyr(3-Me)]Y[Bip]Y(Carboxymethyl)[Orn][dL][Dab][Cha]VTC[Dab][Aun]-OH; thioether N-14) | 21
2 | Cc1cccc(C[C@@H]2NC(=O)[C@H](CC(=O)O)NC(=O)[C@H](Cc3ccc(OCC(=O)O)cc3)NC(=O)[C@H](CCCNC(=N)N)NC(=O)CSC[C@@H](C(=O)N[C@@H](CCN)C(=O)NCCCCCCCCCCC(=O)O)NC(=O)[C@H]([C@@H](C)O)NC(=O)[C@H](C(C)C)NC(=O)[C@H](CC3CCCCC3)NC(=O)[C@H](CCN)NC(=O)[C@@H](CC(C)C)NC(=O)[C@H](CCCN)NC(=O)[C@H](Cc3ccc(OCC(=O)O)cc3)NC(=O)[C@H](Cc3ccc(-c4ccccc4)cc3)NC(=O)[C@H](C(C)(C)O)NC2=O)c1 [Compound 2109] ({CH2CO}-RY(Carboxymethyl)D[Phe(3-Me)][Val(3-OH)][Bip]Y(Carboxymethyl)[Orn][dL][Dab][Cha]VTC[Dab][Aun]-OH; thioether N-14) | 22.2
3 | Cc1cccc(C[C@@H]2NC(=O)[C@H](CC(=O)O)NC(=O)[C@H](Cc3ccc(OCC(=O)O)cc3)NC(=O)[C@H](CCCNC(=N)N)NC(=O)CSC[C@@H](C(=O)N[C@@H](CCN)C(=O)NCCCCCCCCCCC(=O)O)NC(=O)[C@H](CO)NC(=O)[C@H](C(C)C)NC(=O)[C@H](CC3CCCCC3)NC(=O)[C@H](CCN)NC(=O)[C@@H](CC(C)C)NC(=O)[C@H](CCCN)NC(=O)[C@H](Cc3ccc(OCC(=O)O)cc3)NC(=O)[C@H](Cc3ccc(-c4ccccc4)cc3)NC(=O)[C@H](C(C)(C)O)NC2=O)c1 [Compound 2110] ({CH2CO}-RY(Carboxymethyl)D[Phe(3-Me)][Val(3-OH)][Bip]Y(Carboxymethyl)[Orn][dL][Dab][Cha]VSC[Dab][Aun]-OH; thioether N-14) | 24.1
4 | Cc1cccc(C[C@@H]2NC(=O)[C@H](CC(=O)O)NC(=O)[C@H](Cc3ccc(OCC(=O)O)cc3)NC(=O)[C@H](CCCNC(=N)N)NC(=O)CSC[C@@H](C(=O)N[C@@H](CCN)C(=O)NCCCCCCCCCCC(=O)O)NC(=O)[C@H](CO)NC(=O)[C@H](C(C)(C)O)NC(=O)[C@H](CC3CCCCC3)NC(=O)[C@H](CCN)NC(=O)[C@@H](CC(C)C)NC(=O)[C@H](CCCN)NC(=O)[C@H](Cc3ccc(OCC(=O)O)cc3)NC(=O)[C@H](Cc3ccc(-c4ccccc4)cc3)NC(=O)[C@H](Cc3ccc(O)cc3)NC2=O)c1 [Compound 2111] ({CH2CO}-RY(Carboxymethyl)D[Phe(3-Me)]Y[Bip]Y(Carboxymethyl)[Orn][dL][Dab][Cha][Val(3-OH)]SC[Dab][Aun]-OH; thioether N-14) | 6.4
5 | Cc1cccc(C[C@@H]2NC(=O)[C@H](CC(=O)O)NC(=O)[C@H](Cc3ccc(OCC(=O)O)cc3)NC(=O)[C@H](CCNC(=O)C(C)(C)C)NC(=O)CSC[C@@H](C(=O)N[C@@H](CCN)C(=O)NCCCCCCCCCCC(=O)O)NC(=O)[C@H](CCC(N)=O)NC(=O)[C@H](C(C)C)NC(=O)[C@H](CC3CCCCC3)NC(=O)[C@H](CCN)NC(=O)[C@@H](CC(C)C)NC(=O)[C@H](CCCN)NC(=O)[C@H](Cc3ccc(OCC(=O)O)cc3)NC(=O)[C@H](Cc3ccc(-c4ccccc4)cc3)NC(=O)[C@H](Cc3ccc(O)cc3)NC2=O)c1 [Compound 2112] ({CH2CO}-[Dab](Piv)Y(Carboxymethyl)D[Phe(3-Me)]Y[Bip]Y(Carboxymethyl)[Orn][dL][Dab][Cha]VQC[Dab][Aun]-OH; thioether N-14) | 5.5
6 | Cc1cccc(C[C@@H]2NC(=O)[C@H](CC(=O)O)NC(=O)[C@H](Cc3ccc(OCC(=O)O)cc3)NC(=O)[C@H](CCCNC(=N)N)NC(=O)CSC[C@@H](C(=O)N[C@@H](CCN)C(=O)NCCCCCCCCCCC(=O)O)NC(=O)[C@H](CCC(N)=O)NC(=O)[C@H](C(C)C)NC(=O)[C@H](CC3CCCCC3)NC(=O)[C@H](CCN)NC(=O)[C@@H](CC(C)C)NC(=O)[C@H](CCCN)NC(=O)[C@H](Cc3ccc(OCC(=O)O)cc3)NC(=O)[C@H](Cc3ccc(-c4ccccc4)cc3)NC(=O)[C@H](C(C)(C)O)NC2=O)c1 [Compound 2113] ({CH2CO}-RY(Carboxymethyl)D[Phe(3-Me)][Val(3-OH)][Bip]Y(Carboxymethyl)[Orn][dL][Dab][Cha]VQC[Dab][Aun]-OH; thioether N-14) | 8.7
7 | CC(=O)COc1ccc(C[C@@H]2NC(=O)[C@H](Cc3cccc(C)c3)NC(=O)[C@H](CC(=O)O)NC(=O)[C@H](Cc3ccc(OCC(=O)O)cc3)NC(=O)[C@H](CCCNC(=N)N)NC(=O)CSC[C@@H](C(=O)N[C@@H](CCN)C(=O)NCCCCCCCCCCC(=O)O)NC(=O)[C@H]([C@@H](C)O)NC(=O)[C@H](C(C)C)NC(=O)[C@H](CC3CCCCC3)NC(=O)[C@H](CCN)NC(=O)[C@@H](CC(C)C)NC(=O)[C@H](CCCN)NC(=O)[C@H](Cc3ccncc3)NC(=O)[C@H](Cc3ccc(-c4ccccc4)cc3)NC2=O)cc1 [Compound 2114] ({CH2CO}-RY(Carboxymethyl)D[Phe(3-Me)]Y(CH2COCH2)[Bip][4Pal][Orn][dL][Dab][Cha]VTC[Dab][Aun]-OH; thioether N-14) | 10
8 | Cc1cccc(C[C@@H]2NC(=O)[C@H](CC(=O)O)NC(=O)[C@H](Cc3ccc(OCC(=O)O)cc3)NC(=O)[C@H](CCCNC(=N)N)NC(=O)CSC[C@@H](C(=O)N[C@@H](CCN)C(=O)NCCCCCCCCCCC(=O)O)NC(=O)[C@H](CO)NC(=O)[C@H](C(C)C)NC(=O)[C@H](CC3CCCCC3)NC(=O)[C@H](CCN)NC(=O)[C@@H](CC(C)C)NC(=O)[C@H](CCCN)NC(=O)[C@H](Cc3ccncc3)NC(=O)[C@H](Cc3ccc(-c4ccccc4)cc3)NC(=O)[C@H](Cc3ccc(OCC(=O)O)cc3)NC2=O)c1 [Compound 2115] ({CH2CO}-RY(Carboxymethyl)D[Phe(3-Me)]Y(Carboxymethyl)[Bip][4Pal][Orn][dL][Dab][Cha]VSC[Dab][Aun]-OH; thioether N-14) | 29.3
9 | Cc1cccc(C[C@@H]2NC(=O)[C@H](CC(=O)O)NC(=O)[C@H](Cc3ccc(OCC(=O)O)cc3)NC(=O)[C@H](CCCNC(=N)N)NC(=O)CSC[C@@H](C(=O)N[C@H](C(=O)NCCCCCCCCCCC(=O)O)C(C)(C)CCN)NC(=O)[C@H]([C@@H](C)O)NC(=O)[C@H](C(C)C)NC(=O)[C@H](CC3CCCCC3)NC(=O)[C@H](CCN)NC(=O)[C@@H](CC(C)C)NC(=O)[C@H](CCCN)NC(=O)[C@H](Cc3ccc(OCC(=O)O)cc3)NC(=O)[C@H](Cc3ccc(-c4ccccc4)cc3)NC(=O)[C@H](Cc3ccc(O)cc3)NC2=O)c1 [Compound 2116] ({CH2CO}-RY(Carboxymethyl)D[Phe(3-Me)]Y[Bip]Y(Carboxymethyl)[Orn][dL][Dab][Cha]VTC[X5][Aun]-OH; thioether N-14) | 53.5
10 | Cc1cccc(C[C@@H]2NC(=O)[C@H](CC(=O)O)NC(=O)[C@H](Cc3ccc(OCC(=O)O)cc3)NC(=O)[C@H](CCCNC(=N)N)NC(=O)CSC[C@@H](C(=O)N[C@@H](CCNC(=O)C(C)(C)C)C(=O)NCCCCCCCCCCC(=O)O)NC(=O)[C@H]([C@@H](C)O)NC(=O)[C@H](C(C)C)NC(=O)[C@H](CC3CCCCC3)NC(=O)[C@H](CCN)NC(=O)[C@@H](CC(C)C)NC(=O)[C@H](CCCN)NC(=O)[C@H](Cc3ccc(OCC(=O)O)cc3)NC(=O)[C@H](Cc3ccc(-c4ccccc4)cc3)NC(=O)[C@H](Cc3ccc(O)cc3)NC2=O)c1 [Compound 2117] ({CH2CO}-RY(Carboxymethyl)D[Phe(3-Me)]Y[Bip]Y(Carboxymethyl)[Orn][dL][Dab][Cha]VTC[Dab](Piv)[Aun]-OH; thioether N-14) | 26.3
11 | Cc1cccc(C[C@@H]2NC(=O)[C@H](CC(=O)O)NC(=O)[C@H](Cc3ccc(OCC(=O)O)cc3)NC(=O)[C@H](CCCNC(=N)N)NC(=O)CSC[C@@H](C(=O)N[C@@H](CCN)C(=O)NCCCCCCCCCCC(=O)O)NC(=O)[C@H](C(C)(C)CCN)NC(=O)C(C(C)C)NC(=O)[C@H](CC3CCCCC3)NC(=O)[C@H](CCN)NC(=O)[C@@H](CC(C)C)NC(=O)[C@H](CCCN)NC(=O)[C@H](Cc3ccc(OCC(=O)O)cc3)NC(=O)[C@H](Cc3ccc(-c4ccccc4)cc3)NC(=O)[C@H](Cc3ccc(O)cc3)NC2=O)c1 (stereo partly drawn) [Compound 2118] ({CH2CO}-RY(Carboxymethyl)D[Phe(3-Me)]Y[Bip]Y(Carboxymethyl)[Orn][dL][Dab][Cha][ξV][X5]C[Dab][Aun]-OH; thioether N-14) | 126
12 | Cc1cccc(C[C@@H]2NC(=O)[C@H](CC(=O)O)NC(=O)[C@H](Cc3ccc(OCC(=O)O)cc3)NC(=O)[C@H](CCCNC(=N)N)NC(=O)CSC[C@@H](C(=O)N[C@@H](CCN)C(=O)NCCCCCCCCCCC(=O)O)NC(=O)[C@H](CCNC(=O)C(C)(C)C)NC(=O)[C@H](C(C)C)NC(=O)[C@H](CC3CCCCC3)NC(=O)[C@H](CCN)NC(=O)[C@@H](CC(C)C)NC(=O)[C@H](CCCN)NC(=O)[C@H](Cc3ccc(OCC(=O)O)cc3)NC(=O)[C@H](Cc3ccc(-c4ccccc4)cc3)NC(=O)[C@H](Cc3ccc(O)cc3)NC2=O)c1 [Compound 2119] ({CH2CO}-RY(Carboxymethyl)D[Phe(3-Me)]Y[Bip]Y(Carboxymethyl)[Orn][dL][Dab][Cha]V[Dab](Piv)C[Dab][Aun]-OH; thioether N-14) | 10.3
